Key:
[1] = target: T1, nuclear factor-kappa B (NF-kB)-inducing kinase (NIK) (Homo sapiens, UniProt Q99558); assay: NIK enzyme inhibition assay (Transcreener ADP fluorescence polarization, NIK ADP-FP); type: biochemical
T1 construct: made in house; host or cells: baculovirus-infected insect cells
Procedure: NIK Enzyme Inhibition Assay:
The ability of the nuclear factor-kappa B (NF-kB)-inducing kinase (NIK) to catalyze the hydrolysis of adenosine-5′-triphosphate (ATP) was monitored using the Transcreener ADP (adenosine-5′-diphosphate) assay (BellBrook Labs). […] Reactions were quenched by the addition of 20 mM 2,2′,2″,2′″-(ethane-1,2-diyldinitrilo)tetraacetic acid and 0.01% Brij 35. The tracer bound to the antibody was displaced by the ADP generated during the NIK reaction, which causes a decrease in fluorescence polarization that was measured by laser excitation at 633 nm with a Fluorescence Correlation Spectroscopy Plus reader (Evotec AG). Equilibrium dissociation constant (Ki) values for NIK inhibitors are calculated from plots of activity vs. inhibitor concentration using Morrison's quadratic equation that accounts for the potential of tight binding, and by also applying the conversion factor that accounted for competitive inhibition and the concentration of substrate used in the assay relative to its Michaelis constant (Km).

[2] = tested on: p52 (NF-kB2) nuclear translocation in HeLa cells; assay: p52 (NF-kB2) nuclear translocation assay in HeLa cells, anti-lymphotoxin beta receptor antibody stimulated (non-classical NF-kB signaling), high content imaging; type: cell-based; conditions: Homo sapiens, 100 ng/mL anti-lymphotoxin beta receptor antibody for 5 hours, read-out: p52 HeLa Transloc Assay (IC50)
Outline: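 HeLa cells in 10% FBS medium were treated with compound (0.2% DMSO final) and stimulated with 100 ng/mL anti-lymphotoxin beta receptor antibody for 5 h. Fixed cells were immunostained for p52 and imaged with DRAQ5 nuclear stain. Translocation is the nuclear to cytoplasmic intensity ratio, […].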

[3] = tested on: REL-A (p65) nuclear translocation in HeLa cells; assay: REL-A (p65) nuclear translocation assay in HeLa cells, TNF-α stimulated (classical NF-kB signaling), high content imaging; type: cell-based; conditions: Homo sapiens, HeLa, compound 4.5 h, then 10 ng/mL TNF-α for 30 minutes, read-out: REL-A HeLa Transloc Assay (IC50)
Outline: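 HeLa cells in medium with 10% fetal bovine serum were exposed to compounds (0.2% DMSO final) for 4.5 hours, then stimulated with 10 ng/mL TNF-α for 30 minutes. After fixation in 4% paraformaldehyde and permeabilization with 0.1% Triton X-100, cells were stained with 400 ng/mL anti-REL-A (p65) antibody, an Alexa488 secondary and DRAQ5. Opera imaging quantified the nuclear-to-cytoplasmic signal ratio to give IC50.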

T1 sequence (Q99558 whole entry): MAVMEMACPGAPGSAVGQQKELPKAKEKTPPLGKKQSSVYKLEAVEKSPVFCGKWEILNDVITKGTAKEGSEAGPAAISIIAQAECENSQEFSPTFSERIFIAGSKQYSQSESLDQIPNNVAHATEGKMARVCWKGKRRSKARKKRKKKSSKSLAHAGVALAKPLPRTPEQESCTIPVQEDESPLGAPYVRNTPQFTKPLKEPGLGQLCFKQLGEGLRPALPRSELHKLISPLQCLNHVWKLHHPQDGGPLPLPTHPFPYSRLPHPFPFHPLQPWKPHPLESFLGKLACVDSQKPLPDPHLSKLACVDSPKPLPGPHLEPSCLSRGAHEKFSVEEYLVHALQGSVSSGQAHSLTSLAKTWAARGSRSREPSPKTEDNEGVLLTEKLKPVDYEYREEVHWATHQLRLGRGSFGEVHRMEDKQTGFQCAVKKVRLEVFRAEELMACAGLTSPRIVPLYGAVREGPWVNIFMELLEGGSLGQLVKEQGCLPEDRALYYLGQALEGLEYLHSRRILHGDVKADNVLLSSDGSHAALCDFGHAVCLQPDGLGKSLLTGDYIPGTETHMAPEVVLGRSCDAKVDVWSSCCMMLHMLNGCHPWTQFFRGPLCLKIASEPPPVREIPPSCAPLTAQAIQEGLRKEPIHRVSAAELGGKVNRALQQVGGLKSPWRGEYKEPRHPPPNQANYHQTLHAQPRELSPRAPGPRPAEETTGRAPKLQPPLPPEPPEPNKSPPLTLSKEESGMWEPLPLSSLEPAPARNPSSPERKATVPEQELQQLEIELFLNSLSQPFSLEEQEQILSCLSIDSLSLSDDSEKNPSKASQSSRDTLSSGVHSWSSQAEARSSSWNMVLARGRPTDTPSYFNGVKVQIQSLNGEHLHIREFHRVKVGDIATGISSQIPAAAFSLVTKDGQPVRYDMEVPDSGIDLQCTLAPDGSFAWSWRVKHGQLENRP

Q: For CC(C)C[C@@H]1CCCN1c1cc(C(N)=O)nc(-c2cccc(C#C[C@]3(O)CCN(C)C3=O)c2)n1 [Example 28, 2-[3-[2-[(3R)-3-hydroxy-1-methyl-2-oxo-pyrrolidin-3-yl]ethynyl]phenyl]-6-[(2S)-2-isobutylpyrrolidin-1-yl] pyrimidine-4-carboxamide], which Ki [1] is on record?
A: 2.38 nM

Q: What about the IC50 [2] of the same compound?
A: 229 nM

Q: And the IC50 [3]?
A: > 20000 nM

Q: For Cc1ccnn1-c1cc(C(N)=O)nc(-c2cccc(C#C[C@]3(O)CCN(C)C3=O)c2)n1 [Example 71, 2-[3-[2-[(3R)-3-hydroxy-1-methyl-2-oxo-pyrrolidin-3-yl]ethynyl]phenyl]-6-(5-methylpyrazol-1-yl) pyrimidine-4-carboxamide], which Ki [1] is on record?
A: 0.18 nM

Q: And the IC50 [2]?
A: 8.94 nM

Q: What about the IC50 [3] of the same compound?
A: ≥ 20000 nM

Q: How did the Ki [1] turn out when CN1CC[C@@](O)(C#Cc2cccc(-c3ncc(N[C@H]4CCOC4)c(C(N)=O)n3)c2)C1=O [Example 142, 2-[3-[2-[(3R)-3-hydroxy-1-methyl-2-oxo-pyrrolidin-3-yl]ethynyl]phenyl]-5-[[(3S)-tetrahydrofuran-3-yl]amino] pyrimidine-4-carboxamide] was run?
A: 0.24 nM

Q: And the IC50 [2]?
A: 14.8 nM

Q: And the IC50 [3]?
A: ≥ 20000 nM

Q: With CN1CC[C@@](O)(C#Cc2cccc(-c3nc(OC4CCOCC4)c(N)c(C(N)=O)n3)c2)C1=O [Example 107, 5-amino-2-[3-[2-[(3R)-3-hydroxy-1-methyl-2-oxo-pyrrolidin-3-yl]ethynyl]phenyl]-6-tetrahydropyran-4-yloxy-pyrimidine-4-carboxamide] as the compound, how does the Ki [1] read?
A: 0.4 nM

Q: And the IC50 [2]?
A: 269 nM

Q: And the IC50 [3]?
A: ≥ 2000 nM

Q: Which results are given for COCCOc1nc(-c2cccc(C#C[C@]3(O)CCN(C)C3=O)c2)nc(C(N)=O)c1N [Example 108, 5-amino-2-[3-[2-[(3R)-3-hydroxy-1-methyl-2-oxo-pyrrolidin-3-yl]ethynyl]phenyl]-6-(2-methoxyethoxy)pyrimidine-4-carboxamide]?
A: Ki [1]: 0.65 nM; IC50 [2]: 213 nM; IC50 [3]: ≥ 2000 nM

Q: What does the source list for CN1CC[C@@](O)(C#Cc2cccc(-c3ncc(N)c(C(N)=O)n3)c2)C1=O [Example 145, 5-amino-2-[3-[2-[(3R)-3-hydroxy-1-methyl-2-oxo-pyrrolidin-3-yl]ethynyl]phenyl]pyrimidine-4-carboxamide]?
A: Ki [1]: 0.05 nM; IC50 [2]: 38 nM; IC50 [3]: ≥ 2000 nM

Q: With CN1CC[C@@](O)(C#Cc2cccc(-c3nc4c(c(C(N)=O)n3)CC(C)(C)CC4)c2)C1=O [Example 35, 2-[3-[2-[(3R)-3-hydroxy-1-methyl-2-oxo-pyrrolidin-3-yl]ethynyl]phenyl]-6,6-dimethyl-7,8-dihydro-5H-quinazoline-4-carboxamide] as the compound, how does the Ki [1] read?
A: 2.23 nM

Q: What about the IC50 [2] of the same compound?
A: 386 nM

Q: And the IC50 [3]?
A: > 20000 nM

Q: What does the source list for COCCNc1ccc(-c2cccc(C#C[C@]3(O)CCN(C)C3=O)c2)nc1C(N)=O [Example 128, 6-[3-[2-[(3R)-3-hydroxy-1-methyl-2-oxo-pyrrolidin-3-yl]ethynyl]phenyl]-3-(2-methoxyethylamino) pyridine-2-carboxamide]?
A: Ki [1]: 0.05 nM; IC50 [2]: 27.2 nM; IC50 [3]: ≥ 2000 nM

Q: How did the Ki [1] turn out when CN1CC[C@@](O)(C#Cc2cccc(-c3nc(C(N)=O)c(NCc4ccon4)cc3F)c2)C1=O [Example 120, 5-fluoro-6-[3-[2-[(3R)-3-hydroxy-1-methyl-2-oxo-pyrrolidin-3-yl]ethynyl]phenyl]-3-(isoxazol-3-ylmethylamino)pyridine-2-carboxamide] was run?
A: 0.33 nM

Q: And the IC50 [2]?
A: 26.6 nM

Q: What about the IC50 [3] of the same compound?
A: ≥ 2000 nM

Q: How did the Ki [1] turn out when CN1CC[C@@](O)(C#Cc2cccc(-c3nc(C(N)=O)cc(N4CCc5ccccc54)n3)c2)C1=O [Example 20, 2-[3-[2-[(3R)-3-hydroxy-1-methyl-2-oxo-pyrrolidin-3-yl]ethynyl]phenyl]-6-indolin-1-yl-pyrimidine-4-carboxamide] was run?
A: 0.79 nM

Q: What about the IC50 [2] of the same compound?
A: 374 nM

Q: What about the IC50 [3] of the same compound?
A: 19100 nM

Q: Which results are given for CN1CC[C@@](O)(C#Cc2cccc(-c3cc(-c4ccnn4C)nc(C(N)=O)n3)c2)C1=O [Example 53, 4-[3-[2-[(3R)-3-hydroxy-1-methyl-2-oxo-pyrrolidin-3-yl]ethynyl]phenyl]-6-(2-methylpyrazol-3-yl) pyrimidine-2-carboxamide]?
A: Ki [1]: 0.67 nM; IC50 [2]: 725 nM; IC50 [3]: ≥ 20000 nM

Q: How did the Ki [1] turn out when Cc1ccnn1-c1cc(C(N)=O)nc(-c2cccc(C#C[C@]3(O)CCN(C)C3=O)c2)c1 [Example 125, 6-[3-[2-[(3R)-3-hydroxy-1-methyl-2-oxo-pyrrolidin-3-yl]ethynyl]phenyl]-4-(5-methylpyrazol-1-yl) pyridine-2-carboxamide] was run?
A: 1.29 nM

Q: What about the IC50 [2] of the same compound?
A: 84.2 nM

Q: And the IC50 [3]?
A: ≥ 2000 nM

Q: For CN1CC[C@@](O)(C#Cc2cccc(-c3nc(C(N)=O)cc(-c4ccnn4C)n3)c2)C1=O [Example 33, 2-[3-[2-[(3R)-3-hydroxy-1-methyl-2-oxo-pyrrolidin-3-yl]ethynyl]phenyl]-6-(2-methylpyrazol-3-yl) pyrimidine-4-carboxamide], which Ki [1] is on record?
A: < 0.05 nM

Q: And the IC50 [2]?
A: 36.3 nM

Q: What about the IC50 [3] of the same compound?
A: > 28000 nM

Q: For Cc1ccc(-c2cc(C(N)=O)nc(-c3cccc(C#C[C@]4(O)CCN(C)C4=O)c3)c2)cn1 [Example 126, 6-[3-[2-[(3R)-3-hydroxy-1-methyl-2-oxo-pyrrolidin-3-yl]ethynyl]phenyl]-4-(6-methyl-3-pyridyl)pyridine-2-carboxamide], which Ki [1] is on record?
A: 0.05 nM

Q: What about the IC50 [2] of the same compound?
A: 122 nM

Q: And the IC50 [3]?
A: ≥ 2000 nM

Q: For COc1cc(-c2cccc(C#C[C@]3(O)CCN(C)C3=O)c2)nc(C(N)=O)n1 [Example 136, 4-[3-[2-[(3R)-3-hydroxy-1-methyl-2-oxo-pyrrolidin-3-yl]ethynyl]phenyl]-6-methoxy-pyrimidine-2-carboxamide], which Ki [1] is on record?
A: 0.5 nM

Q: What about the IC50 [2] of the same compound?
A: 152 nM

Q: What about the IC50 [3] of the same compound?
A: ≥ 2000 nM

Q: How did the Ki [1] turn out when CN1CC[C@@](O)(C#Cc2cccc(-c3cc(C(F)F)cc(C(N)=O)n3)c2)C1=O [Example 173, 4-(difluoromethyl)-6-[3-[2-[(3R)-3-hydroxy-1-methyl-2-oxo-pyrrolidin-3-yl]ethynyl]phenyl]pyridine-2-carboxamide] was run?
A: 0.31 nM

Q: And the IC50 [2]?
A: 108 nM

Q: And the IC50 [3]?
A: > 2000 nM

Q: Which Ki [1] does the source give for CN1CC[C@@](O)(C#Cc2ccc(F)c(-c3ccc(NC4COC4)c(C(N)=O)n3)c2)C1=O [Example 85, 6-[2-fluoro-5-[2-[(3R)-3-hydroxy-1-methyl-2-oxo-pyrrolidin-3-yl]ethynyl]phenyl]-3-(oxetan-3-ylamino)pyridine-2-carboxamide] here?
A: 0.05 nM

Q: What about the IC50 [2] of the same compound?
A: 5.88 nM

Q: And the IC50 [3]?
A: 6320 nM

Q: Which Ki [1] does the source give for Cc1ccn(-c2cc(C(N)=O)nc(-c3cccc(C#C[C@]4(O)CCN(C)C4=O)c3)n2)n1 [Example 166, 2-[3-[2-[(3R)-3-hydroxy-1-methyl-2-oxo-pyrrolidin-3-yl]ethynyl]phenyl]-6-(3-methylpyrazol-1-yl)pyrimidine-4-carboxamide] here?
A: < 0.05 nM

Q: And the IC50 [2]?
A: 59 nM

Q: And the IC50 [3]?
A: > 2000 nM

Q: Which Ki [1] does the source give for CN1CC[C@@](O)(C#Cc2cc(F)cc(-c3nc(C(N)=O)c(N)cc3F)c2)C1=O [Example 167, 3-amino-5-fluoro-6-[3-fluoro-5-[2-[(3R)-3-hydroxy-1-methyl-2-oxo-pyrrolidin-3-yl]ethynyl]phenyl]pyridine-2-carboxamide] here?
A: < 0.05 nM

Q: What about the IC50 [2] of the same compound?
A: 85 nM

Q: What about the IC50 [3] of the same compound?
A: > 2000 nM

Q: For COC[C@H](C)Nc1ccc(-c2cc(C#C[C@]3(O)CCN(C)C3=O)ccc2F)nc1C(N)=O [Example 149, 6-[2-fluoro-5-[2-[(3R)-3-hydroxy-1-methyl-2-oxo-pyrrolidin-3-yl]ethynyl]phenyl]-3-[[(1S)-2-methoxy-1-methyl-ethyl]amino]pyridine-2-carboxamide], which Ki [1] is on record?
A: 0.88 nM

Q: What about the IC50 [2] of the same compound?
A: 51.1 nM

Q: And the IC50 [3]?
A: ≥ 2000 nM

Q: CN1CC[C@@](O)(C#Cc2cccc(-c3nc(C(N)=O)cc(-c4cnccn4)n3)c2)C1=O [Example 96, 2-[3-[2-[(3R)-3-hydroxy-1-methyl-2-oxo-pyrrolidin-3-yl]ethynyl]phenyl]-6-pyrazin-2-yl-pyrimidine-4-carboxamide] was tested. Which Ki [1] did it give?
A: 0.45 nM

Q: And the IC50 [2]?
A: 34.7 nM

Q: What about the IC50 [3] of the same compound?
A: ≥ 20000 nM

Q: Which results are given for CN1CC[C@@](O)(C#Cc2cccc(-c3nc(C(N)=O)cc(-n4ccnc4)n3)c2)C1=O [Example 70, 2-[3-[2-[(3R)-3-hydroxy-1-methyl-2-oxo-pyrrolidin-3-yl]ethynyl]phenyl]-6-imidazol-1-yl-pyrimidine-4-carboxamide]?
A: Ki [1]: 0.94 nM; IC50 [2]: 79 nM; IC50 [3]: ≥ 20000 nM

Q: Which Ki [1] does the source give for Cc1cc(C(N)=O)nc(-c2cccc(C#C[C@]3(O)CCN(C)C3=O)c2)c1 [Example 123, 6-[3-[2-[(3R)-3-hydroxy-1-methyl-2-oxo-pyrrolidin-3-yl]ethynyl]phenyl]-4-methyl-pyridine-2-carboxamide] here?
A: 0.09 nM

Q: And the IC50 [2]?
A: 79.4 nM

Q: And the IC50 [3]?
A: ≥ 2000 nM

Q: What does the source list for CN1CC[C@@](O)(C#Cc2cccc(-c3nc(C(N)=O)cc(N4CC[C@H]4c4cccs4)n3)c2)C1=O [Example 27, 2-[3-[2-[(3R)-3-hydroxy-1-methyl-2-oxo-pyrrolidin-3-yl]ethynyl]phenyl]-6-[(2S)-2-(2-thienyl)azetidin-1-yl]pyrimidine-4-carboxamide]?
A: Ki [1]: 3.34 nM; IC50 [2]: 87.2 nM; IC50 [3]: > 20000 nM

Q: Which results are given for Cc1nc([C@](C)(O)C#Cc2cccc(-c3nc(C(N)=O)c(N)cc3F)c2)no1 [Example 132, 3-amino-5-fluoro-6-[3-[(3R)-3-hydroxy-3-(5-methyl-1,2,4-oxadiazol-3-yl)but-1-ynyl]phenyl]pyridine-2-carboxamide]?
A: Ki [1]: 8.75 nM; IC50 [2]: ≥ 2000 nM; IC50 [3]: ≥ 2000 nM

Source: patent US20160185797A1, “ALKYNYL ALCOHOLS AND METHODS OF USE” (Genentech, Inc., priority 2013, published 2016)
